Assay results taken from the Deep4Chem optical property database.
Several values for one entry are separate records, joined by “and”; a condition that tells them apart may be missing. Identical values can stand only once. Each block holds one compound with its values, some of them ahead of it.

Assay: solvent given as SMILES

Compound: O=Cc1ccc(C#CC(C#Cc2ccc(C=O)s2)=Cc2ccc(C=C(C#Cc3ccc(C=O)s3)C#Cc3ccc(C=O)s3)s2)s1
fluorescence lifetime (in ClC(Cl)Cl): 0.5 ns

Compound: COc1ccc(N2c3ccc4ccccc4c3-c3c4ccccc4cc[n+]3[B-]2(c2ccccc2)c2ccccc2)cc1
fluorescence lifetime (in Cc1ccccc1): 0.25 ns

Compound: COc1ccc(/C=C/c2ccccc2)cc1OC
fluorescence lifetime (in CC#N): 0.5 ns

Compound: O=S(=O)(c1ccc(-c2ccc(-n3c4ccccc4c4ccccc43)cc2)cc1)c1ccc(-c2ccc(-n3c4ccccc4c4ccccc43)cc2)cc1
fluorescence lifetime (in Cc1ccccc1): 2.55 ns

Compound: Cc1nc2c(ccc3ccccc32)oc1=O
fluorescence lifetime (in c1ccccc1): 1.5 ns

Compound: Cc1ccc(-[c+]2c3ccccc3sc3ccccc32)cc1
fluorescence lifetime (in CC#N): 1 ns

Compound: Cc1ccc(-c2ccc(-c3ccc(-c4ccc(-c5ccc(C)cc5)cc4)c(/C(=C(/c4ccccc4)c4cc(-c5ccc(-c6ccc(C)cc6)cc5)ccc4-c4ccc(-c5ccc(C)cc5)cc4)c4ccccc4)c3)cc2)cc1
fluorescence lifetime (in C1CCOC1): 8.5 ns

Compound: CN(C)c1ccc2c(c1)C(C)(C)C(=O)C=C2
fluorescence lifetime (in O): 3.66 ns

Compound: CC(=O)OC[C@@H]1O[C@H](n2cnc3c2N=CN2Cc4c[n+](C)c(C)nc4N=C32)[C@@H](O)[C@H]1O
fluorescence lifetime (in CC#N): 3.5 ns
fluorescence lifetime (in CCO): 3.24 ns
fluorescence lifetime (in O): 3.28 ns

Compound: CCC1=C(C)C2=Cc3cc(I)cn3[B-](F)(F)[N+]2=C1C
fluorescence lifetime (in C1CCCCC1): 0.489 ns
fluorescence lifetime (in CC(C)=O): 0.317 ns
fluorescence lifetime (in CCO): 0.349 ns
fluorescence lifetime (in CCOC(C)=O): 0.362 ns
fluorescence lifetime (in CO): 0.324 ns
fluorescence lifetime (in OCC(F)(F)F): 0.308 ns

Compound: COc1cc2c(cc1-c1ccc([N+](=O)[O-])cc1)Cc1c3c(c4c(c1-2)-c1cc(OC)c(-c2ccc([N+](=O)[O-])cc2)cc1C4)C(=O)N(CCC(C)C)C3=O
fluorescence lifetime (in C1CCOC1): 1.43 ns

Compound: CCOC(=O)C(C(=O)OCC)C1=[N+]2C(=C(c3ccc(C)cc3)c3ccc(Cl)n3[B-]2(F)F)C=C1
fluorescence lifetime (in C1CCCCC1): 2.69 ns
fluorescence lifetime (in C1CCOC1): 2.5 ns
fluorescence lifetime (in CCOC(C)=O): 2.31 ns
fluorescence lifetime (in CO): 2.02 ns
fluorescence lifetime (in Cc1ccccc1): 3.63 ns
fluorescence lifetime (in ClC(Cl)Cl): 3.67 ns

Compound: Cc1ccc(N(c2ccc(C)cc2)c2ccc(-c3ccc(C=C(C#N)C#N)cc3)cc2)cc1
fluorescence lifetime (in ClC(Cl)Cl): 1.06 ns

Compound: c1ccc2ccccc2c1
fluorescence lifetime (in C1CCCCC1): 168 ns and 96 ns

Compound: CC1=CC(C)=[N+]2C1=Cc1c(C)cc(C)n1[B-]2(F)F
fluorescence lifetime (in CCCCCC): 5.85 ns
fluorescence lifetime (in CO): 5.95 ns
fluorescence lifetime (in ClCCl): 5.73 ns

Compound: c1ccc2c(c1)-c1ccccc1C21c2ccccc2-c2c1c1c3ccccc3ccc1c1ccccc21
fluorescence lifetime (in Cc1ccccc1): 3.14 ns

Compound: CCOC(=O)c1ccc2c(c1)[se]c1c3ccc(C(=O)OCC)cc3n(C)c21
fluorescence lifetime (in CCCO): 0.175 ns

Compound: CN1/C(=C/C=C/C2=[N+](CCCCCC(=O)O)c3ccc(S(=O)(=O)[O-])cc3C2(C)C)C(C)(C)c2cc(S(=O)(=O)[O-])ccc21
fluorescence lifetime (in O): 0.3 ns

Compound: COC(=O)[C@]12N=N[C@](C(=O)OC)(C3C4C5C4C5C31)C1C3C4C3C4C12 (stereo partly drawn)
fluorescence lifetime (in CC#N): 166 ns

Compound: Cc1ccc(-c2ccc(/C=C/c3ccc(N(C)C)cc3)cn2)nc1
fluorescence lifetime (in CC#N): 1.22 ns

Compound: Nc1ccc2c(c1)C(=O)c1ccccc1-2
fluorescence lifetime (in C1CCCCC1): 4 ns
fluorescence lifetime (in c1ccccc1): 0.84 ns

Compound: CCCCCCCCCCCCOc1cc2c3c(ccc4c5c(SCCCCCCCCCCCC)cc6c7c(ccc(c1c34)c75)C(=O)N(C1CCCCC1)C6=O)C(=O)N(C1CCCCC1)C2=O
fluorescence lifetime (in ClC(Cl)Cl): 7.8 ns

Compound: CSc1ccc2c(c1)N(CCCN1CCN(C)CN1C)c1ccccc1S2
fluorescence lifetime (in CC#N): 1.03 ns
fluorescence lifetime (in CO): 0.96 ns
fluorescence lifetime (in O): 1.47 ns

Compound: COc1ccc2c(c1)-c1cc(OC)ccc1C2=O
fluorescence lifetime (in C1CCCCC1): 1.8 ns
fluorescence lifetime (in CC#N): 15.7 ns
fluorescence lifetime (in CCO): 0.8 ns

Compound: c1ccc(N(c2ccccc2)c2ccc(-c3ccc4c(c3)C3(c5cc(-c6ccc(N(c7ccccc7)c7ccccc7)cc6)ccc5-4)c4ccccc4N(c4ccccc4)c4ccccc43)cc2)cc1
fluorescence lifetime (in ClCCl): 1.2 ns

Continued, values first:

fluorescence lifetime (in ClC(Cl)Cl): 15.4 ns
Compound: CCCCCCN1C(=O)c2cccc3cc(/N=C\c4ccc(N(c5ccccc5)c5ccccc5)cc4)cc(c23)C1=O

fluorescence lifetime (in ClC(Cl)Cl): 7 ns
Compound: CN(C)c1ccc(-c2cc(-c3cccs3)nc(-c3ccccc3)n2)cc1

fluorescence lifetime (in ClCCl): 2.1 ns
Compound: C[Si]1(C)c2cc(-c3ccc(N(c4ccccc4)c4ccccc4)cc3)ccc2C=Cc2ccc(-c3ccc(N(c4ccccc4)c4ccccc4)cc3)cc21

fluorescence lifetime (in CCCCCC): 0.45 ns
Compound: COc1ccc2c(c1)N(c1ccccc1-c1ccccc1)c1cc3c(cc1=N2)Oc1c(cc(C(C)(C)C)cc1C(C)(C)C)N=3

fluorescence lifetime (in ClCCl): 4.9 ns
Compound: COc1ccc(Oc2ccc3c4c(cccc24)C(=O)N(c2c(C(C)C)cccc2C(C)C)C3=O)cc1

fluorescence lifetime (in CN(C)C=O): 5.57 ns
Compound: C[Si](C)(C)O[Si]1(O[Si](C)(C)C)n2c3c4ccccc4c2/N=C2N=C(/N=c4/c5ccccc5/c(n41)=N/C1=NC(=N\3)/c3ccccc31)c1ccccc1\2

fluorescence lifetime (in CN(C)C=O): 2.09 ns
fluorescence lifetime (in ClCCl): 9.27 ns
Compound: C1=Cc2nc1c(-c1cccs1)c1ccc([nH]1)c(-c1cccs1)c1nc(c(-c3cccs3)c3ccc([nH]3)c2-c2cccs2)C=C1

fluorescence lifetime (in ClCCl): 1.74 ns
Compound: CC(C)(C)NC(=O)c1cccc2ccc3c4ccccc4c4ccccc4c3c12

fluorescence lifetime (in CC#N): 1.88 ns
Compound: Fc1ccc(/C=C/c2nc3c4ccccc4c4ccccc4c3o2)cc1

fluorescence lifetime (in ClCCl): 3.96 ns
Compound: CC(C)(C)c1ccc2c(c1)-c1c3c(c4c5c1-c1cc(C(C)(C)C)ccc1OB5Oc1ccc(C(C)(C)C)cc1-4)-c1cc(C(C)(C)C)ccc1OB3O2

fluorescence lifetime (in C1CCOC1): 5.4 ns
Compound: C[Si](C)(C)c1ccc(-c2ccc(-c3ccc(-c4ccc(-c5ccc([Si](C)(C)C)cc5)cc4)c4nsnc34)cc2)cc1

fluorescence lifetime (in ClCCl): 0.25 ns
Compound: CCN(CC)c1ccc2c(-c3ccccc3C(=O)O)c3c([o+]c2c1)/C(=C/c1ccc(N(C)C)cc1)CCC3

fluorescence lifetime (in c1cc(-n2c3ccccc3c3ccccc32)cc(-n2c3ccccc3c3ccccc32)c1): 23 ns
Compound: O=C(c1ccc(N2c3ccccc3Oc3ccccc32)cc1)c1ccc(N2c3ccccc3Oc3ccccc32)cc1
